Here are results for 53 compounds from patent US20180362543A1, “HIV REPLICATION INHIBITOR” (Shionogi & Co., Ltd., priority 2013, published 2018).

The subject of one test is HIV (HTLV-III B strain). The experiment in a line: HIV replication inhibition assay (MTT, MT-4 cells). The class given is cell-based. As to conditions: 4 days culture, concentration at which cell cytotoxicity by virus is inhibited 50%. In a few lines: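 MT-4 cells (2.5×10^4/well) infected with HTLV-III B stock (60 pfu) in presence of compound, cultured four days at 37 °C. Viability by MTT reduction, formazan read at 560 and 690 nm. EC50 is concentration inhibiting virus-induced cytotoxicity by 50%.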
The term EC50 denotes the concentration giving half of the maximal effect. A higher EC50 goes with weaker potency. Consider `Cc1c(C(OC(C)(C)C)C(=O)O)c(-c2ccc3c(c2)CCCO3)c(C)c2c1[nH]c(=O)n2Cc1ccccc1` (centres unmarked) [Compound 3], for which the EC50 is 64 nM.

The test is the same for the next values; noted with them: Human immunodeficiency virus 1, MT4, 96 h, 4 days culture, concentration at which cell cytotoxicity by virus is inhibited 50%.
The compound `Cc1c(-c2c(C)c3c(c(C)c2[C@H](OC(C)(C)C)C(=O)O)N(S(C)(=O)=O)Cc2cc(F)cnc2-3)ccc2c1CCCO2` [Compound 320] returned an EC50 of 3.1 nM. In other words, the single-digit nanomolar range.
In the case of `Cc1c(-c2ccc3c(c2C)N(C)CCO3)c([C@H](OC(C)(C)C)C(=O)O)c(C)c2c1-c1c(F)ccc(F)c1CN2S(C)(=O)=O` [Compound 321], the concentration giving a half-maximal response (EC50) amounted to 15 nM.
`Cc1ccc(-c2c(C)c3c(c(C)c2[C@H](OC(C)(C)C)C(=O)O)NC(=O)c2ccc(C)nc2O3)cc1` [Compound 48] yielded a concentration for a half-maximal effect (EC50) of 29 nM.
As to `Cc1c(-c2c(C)c3c(c(C)c2[C@H](OC(C)(C)C)C(=O)O)N(S(C)(=O)=O)Cc2ccccc2-3)ccc2c1NCCO2` [Compound 300], the EC50 was less than 7.8 nM.
As to `Cc1c(-c2c(C)c3c(c(C)c2[C@H](OC(C)(C)C)C(=O)O)N(S(C)(=O)=O)Cc2cc(F)cnc2-3)ccc2c1NCCO2` [Compound 310], the midpoint of the response, the EC50, lay at 25 nM. This counts as double-digit nanomolar.

Staying with this test, now noted: Human immunodeficiency virus 1, MT4, 96 h, Table A-2, four days.
Take `Cc1ccc(-c2c(C)c3c(c(C)c2[C@H](OC(C)(C)C)C(=O)O)N(S(C)(=O)=O)Cc2c-3ccc3cccnc23)cc1` [Compound 116]: a half-maximal response (EC50) required 2.9 nM.
Take `Cc1ccc(-c2c(C)c3c(c(C)c2[C@H](OC(C)(C)C)C(=O)O)N(S(C)(=O)=O)Cc2cc(F)c(F)cc2-3)cc1` [Compound 108]: the midpoint of the response, the EC50, lay at 12 nM.
On the same count and under the same terms, under `Cc1ccc(-c2c(C)c3c(c(C)c2[C@H](OC(C)(C)C)C(=O)O)NS(=O)(=O)Cc2ccc(F)cc2-3)cc1` [Compound 95] stands 9.8 nM; under `Cc1ccc(-c2c(C)c3c(c(C)c2[C@H](OC(C)(C)C)C(=O)O)NC(=O)C2(C[C@@H]4CC[C@H]2C4)N3)cc1` (some centres unmarked) [Compound 113], 8.6 nM.
Still for that read-out and setting: the figure for `Cc1ccc(-c2c(C)c3c(c(C)c2[C@H](OC(C)(C)C)C(=O)O)NC(=O)C2(CCC(C)(C)CC2)N3)cc1` [Compound 112] is 8.5 nM; for `COc1ccc2c(c1)CN(S(C)(=O)=O)c1c(C)c([C@H](OC(C)(C)C)C(=O)O)c(-c3ccc(C)cc3)c(C)c1-2` [Compound 122] it is 3.8 nM.

Staying with this test, now noted: Human immunodeficiency virus 1, MT4, 96 h, Table A-3, four days.
Turning to `COc1ccc2c(c1)-c1c(C)c(-c3ccc(C)cc3)c([C@H](OC(C)(C)C)C(=O)O)c(C)c1N(S(C)(=O)=O)C2` [Compound 168], a half-maximal response (EC50) required 24 nM.
Same read-out and setting: the figure for `Cc1ccc(-c2c(C)c3c(c(C)c2[C@H](OC(C)(C)C)C(=O)O)NS(=O)(=O)Cc2cccc(F)c2-3)cc1` [Compound 156] is 23 nM; for `COc1cc(C)c2c(c1)CN(S(C)(=O)=O)c1c(C)c([C@H](OC(C)(C)C)C(=O)O)c(-c3ccc(C)cc3)c(C)c1-2` [Compound 162] it is 13 nM.
Turning to `Cc1ccc(-c2c(C)c3c(c(C)c2[C@H](OC(C)(C)C)C(=O)O)N(S(C)(=O)=O)Cc2ccc(F)cc2-3)cc1` [Compound 161], the concentration giving a half-maximal response (EC50) is 21 nM.
As to `Cc1ccc(-c2c(C)c3c(c(C)c2[C@H](OC(C)(C)C)C(=O)O)NC(=O)N(C2CCCCCC2)CC3)cc1` [Compound 148], the concentration giving a half-maximal response (EC50) turned out to be 8.8 nM.
Regarding `COc1ccc2c(c1F)CN(S(C)(=O)=O)c1c(C)c([C@H](OC(C)(C)C)C(=O)O)c(-c3ccc(C)cc3)c(C)c1-2` [Compound 174], the EC50 came to 1.5 nM.

Still in this test, the particulars now being: Human immunodeficiency virus 1, MT4, 96 h, Table A-4, four days.
With `Cc1ccc(-c2c([C@H](OC(C)(C)C)C(=O)O)c(C)c3nc(O)c4ccc(F)cc4c3c2C)cc1` [Compound 230], the 50% effective concentration (EC50) came to 94 nM.
Still for that read-out and setting: under `COc1ccc2c(c1)c(O)nc1c(C)c([C@H](OC(C)(C)C)C(=O)O)c(-c3ccc(C)cc3)c(C)c12` [Compound 223] stands 34 nM.
Same read-out and setting: under `COc1cc2c(cn1)-c1c(C)c(-c3ccc(C)cc3)c([C@H](OC(C)(C)C)C(=O)O)c(C)c1N(S(C)(=O)=O)C2` [Compound 214] stands 4.9 nM; under `Cc1c(-c2c(C)c3c(c(C)c2[C@H](OC(C)(C)C)C(=O)O)N(S(C)(=O)=O)Cc2cccc(F)c2-3)ccc2c1NCCO2` [Compound 235], 5.4 nM.

The same test, now with this note: Human immunodeficiency virus 1, MT4, 96 h, Table A-5, four days.
For `Cc1c(-c2ccc3c(c2)CCCO3)c([C@H](OC(C)(C)C)C(=O)O)c(C)c2c1-c1c(F)cccc1CN2S(C)(=O)=O` [Compound 266], the EC50 came out at 7.9 nM.
The compound `Cc1ccc(-c2c(C)c3c(c(C)c2[C@H](OC(C)(C)C)C(=O)O)N(S(C)(=O)=O)Cc2nc(C)ccc2-3)cc1` [Compound 248] had an EC50 of 11 nM. The EC50 values of the last two compounds are within 1.5-fold of each other.
On the same count and under the same terms, the figure for `Cc1c(-c2ccc(Cl)cc2)c([C@H](OC(C)(C)C)C(=O)O)c(C)c2c1-c1c(F)cccc1CN2S(C)(=O)=O` [Compound 265] is 11 nM.
Regarding `Cc1c(-c2ccc3c(c2Cl)NCCO3)c([C@H](OC(C)(C)C)C(=O)O)c(C)c2c1-c1c(F)ccc(F)c1CN2S(C)(=O)=O` [Compound 296], the EC50 was less than 7.8 nM.
Compound `Cc1c(-c2c(C)c3c(c(C)c2[C@H](OC(C)(C)C)C(=O)O)N(S(C)(=O)=O)Cc2cc(F)cc(F)c2-3)ccc2c1NCCO2` [Compound 286] had an EC50 of 3.2 nM.

The same test, now with this note: Human immunodeficiency virus 1, MT4, 96 h, Table A-7, four days.
In turn, `CCC(C)(C)O[C@H](C(=O)O)c1c(C)c2c(c(C)c1-c1ccc3c(c1C)NCCO3)-c1c(F)cccc1CN2S(C)(=O)=O` [Compound 351] had an EC50 of 4.5 nM.
Still for that read-out and setting: under `Cc1ccc2c(c1)CN(S(C)(=O)=O)c1c(C)c([C@H](OC(C)(C)C)C(=O)O)c(-c3ccc4c(c3C)NCCO4)c(C)c1-2` [Compound 348] stands 2 nM; under `Cc1c(-c2c(C)c3c(c(C)c2[C@H](OC(C)(C)C)C(=O)O)N(S(C)(=O)=O)Cc2cccc(F)c2-3)ccc2c1NC(=O)CO2` [Compound 350], 96 nM.
Still for that read-out and setting: under `Cc1ccc(-c2c(C)c3c(c(C)c2[C@H](OC(C)(C)C)C(=O)O)N(S(N)(=O)=O)Cc2c(F)ccc(F)c2-3)cc1` [Compound 333] stands 19 nM.
`CC(=O)N1Cc2cccc(F)c2-c2c(C)c(-c3ccc4c(c3C)NCCO4)c([C@H](OC(C)(C)C)C(=O)O)c(C)c21` [Compound 342] came in with an EC50 of 9 nM.
`Cc1c(-c2c(C)c3c(c(C)c2[C@H](OC(C)(C)C)C(=O)O)N(S(C)(=O)=O)Cc2cccc(F)c2-3)ccc(Cl)c1N` [Compound 327] displayed an EC50 of 7.2 nM.
`Cc1ccc(-c2c(C)c3c(c(C)c2[C@H](OC(C)(C)C)C(=O)O)N(S(C)(=O)=O)Cc2cccc(F)c2-3)cc1N` [Compound 352] displayed an EC50 of 10 nM.
On the same count and under the same terms, the figure for `Cc1cccc2c1CN(S(C)(=O)=O)c1c(C)c([C@H](OC(C)(C)C)C(=O)O)c(-c3ccc4c(c3C)NCCO4)c(C)c1-2` [Compound 346] is 4.8 nM.

Still in this test, the particulars now being: Human immunodeficiency virus 1, MT4, 96 h, Table A-8 (continuation of Tables A-1 to A-9), four days.
`Cc1ccc(-c2c(C)c3c(c(C)c2[C@H](OC(C)(C)C)C(=O)O)N(S(C)(=O)=O)Cc2cc(N(C)C)cnc2-3)cc1` [Compound 390] returned an EC50 of 2.2 nM.
Same read-out and setting: under `COc1cnc2c(c1)CN(S(C)(=O)=O)c1c(C)c([C@H](OC(C)(C)C)C(=O)O)c(-c3ccc(C)cc3)c(C)c1-2` [Compound 368] stands 3.9 nM.
The same measure, in the same setting: the figure for `Cc1ccc(-c2c(C)c3c(c(C)c2[C@H](OC(C)(C)C)C(=O)O)N(S(C)(=O)=O)Cc2cc(F)c(N(C)C)nc2-3)cc1` [Compound 398] is 80 nM.
The same measure, in the same setting: under `Cc1ccc2c(n1)CN(S(C)(=O)=O)c1c(C)c([C@H](OC(C)(C)C)C(=O)O)c(-c3ccc(Cl)cc3)c(C)c1-2` [Compound 380] stands 13 nM; under `Cc1ccc(-c2c(C)c3c(c(C)c2[C@H](OC(C)(C)C)C(=O)O)N(S(C)(=O)=O)Cc2cccc(F)c2-3)c(O)c1` [Compound 381], 5 nM.
In turn, `COc1cc2c(cn1)-c1c(C)c(-c3ccc(Cl)cc3)c([C@H](OC(C)(C)C)C(=O)O)c(C)c1N(S(C)(=O)=O)C2` [Compound 379] yielded an EC50 of 2.3 nM.
Compound `COc1ccnc2c1CN(S(C)(=O)=O)c1c(C)c([C@H](OC(C)(C)C)C(=O)O)c(-c3ccc(C)cc3)c(C)c1-2` [Compound 374] gave an EC50 of 63 nM. This EC50 is about 27-fold higher than that of the compound before.
For `Cc1c(-c2ccc(Cl)cc2)c([C@H](OC2(C)CCC2)C(=O)O)c(C)c2c1-c1c(F)cccc1CN2S(C)(=O)=O` [Compound 378], a half-maximal response (EC50) required 36 nM.
On to `Cc1ccc(-c2c(C)c3c(c(C)c2[C@H](OC(C)(C)C)C(=O)O)N(S(C)(=O)=O)Cc2ccc4c(c2-3)OCCO4)cc1` [Compound 395], for which the concentration giving a half-maximal response (EC50) was 34 nM.
For the compound `COc1ccc2c(n1)CN(S(C)(=O)=O)c1c(C)c([C@H](OC(C)(C)C)C(=O)O)c(-c3ccc(C)cc3)c(C)c1-2` [Compound 371], the EC50 is 4.6 nM.
For the compound `Cc1ccc(-c2c(C)c3c(c(C)c2[C@H](OC(C)(C)C)C(=O)O)N(S(C)(=O)=O)Cc2cc(C(F)(F)F)cnc2-3)cc1` [Compound 391], a half-maximal response (EC50) required 4.1 nM.
In turn, `Cc1ccc(-c2c(C)c3c(c(C)c2[C@H](OC(C)(C)C)C(=O)O)N(S(C)(=O)=O)Cc2ccc(N)nc2-3)cc1` [Compound 386] returned an EC50 of 86 nM.
On the same count and under the same terms, under `Cc1ccc(-c2c(C)c3c(c(C)c2[C@H](OC(C)(C)C)C(=O)O)N(S(C)(=O)=O)Cc2nc(C)cc(C)c2-3)cc1` [Compound 388] stands 29 nM.
On the same count and under the same terms, under `Cc1c(-c2c(C)c3c(c(C)c2[C@H](OC(C)(C)C)C(=O)O)N(S(C)(=O)=O)Cc2cccc(F)c2-3)ccc(Br)c1N` [Compound 367] stands 7.6 nM.

The same test, now with this note: Human immunodeficiency virus 1, MT4, 96 h, Table A-9, four days.
Turning to `Cc1cnc2c(c1)CN(S(C)(=O)=O)c1c(C)c([C@H](OC(C)(C)C)C(=O)O)c(-c3ccc(Cl)cc3O)c(C)c1-2` [Compound 406], the concentration for a half-maximal effect (EC50) came out at 38 nM.

Still in this test, the particulars now being: Table A-2, four days.
Take `Cc1ccc(-c2c(C)c3c(c(C)c2[C@H](OC(C)(C)C)C(=O)O)N(S(C)(=O)=O)Cc2cc4c(cc2-3)OCCO4)cc1` [Compound 104]: the half-maximal effective concentration (EC50) stood at 2.1 nM.
Consider `Cc1ccc(-c2c(C)c3c(c(C)c2[C@H](OC(C)(C)C)C(=O)O)NS(=O)(=O)Cc2cc(C)ccc2-3)cc1` [Compound 118], for which the concentration giving a half-maximal response (EC50) was 4.4 nM. This EC50 is about 2.1-fold higher than that of the compound before.

Staying with this test, now noted: Table A-5, four days.
Compound `Cc1ccc(-c2c(C)c3c(c(C)c2[C@H](OC(C)(C)C)C(=O)O)N(S(C)(=O)=O)CC2CCCCN32)cc1` (some centres unmarked) [Compound 288] displayed an EC50 of 37 nM. This counts as double-digit nanomolar.
